Consider 46 molecules from patent US9096565B2, “Inhibitors of histone deacetylase” (MethylGene Inc., priority 2007, dated 2015).

The target of the test is one or more of HDAC-4, HDAC-5, HDAC-6, HDAC-7, HDAC-8, HDAC-9, HDAC-10 and HDAC-11. Put plainly: Inhibition of histone deacetylase enzymatic activity (summary statement over isoforms). The test is classed as biochemical. The following applies: Table 3, selected examples; HDAC isoform not given. In a few lines: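 Activity was measured as deacetylation of the fluorogenic substrate Boc-Lys(trifluoroacetyl)-AMC over 20-30 min at 37 °C, after a 5 min room-temperature preincubation of enzyme with compound. Trypsin (1 mg/mL) with a reference HDAC inhibitor ended the reaction.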
`O=C(NO)C(Oc1ccc2c(c1)CCCC2)c1ccccc1` (stereo not shown) [Compound 7-36, N-hydroxy-2-phenyl-2-(5,6,7,8-tetrahydronaphthalen-2-yloxy)acetamide] returned a concentration for half-maximal inhibition (IC50) of 1000 to 15000 nM.

Turning to `O=C(NO)C(c1ccccc1)c1nnc(-c2ccccc2Oc2ccccc2)s1` (stereo not shown) [Compound 5-52, N-hydroxy-2-(5-(2-phenoxyphenyl)-1,3,4-thiadiazol-2-yl)-2-phenylacetamide], the IC50 was under 1000 nM.

`O=C(NO)C(c1ccc(N2CCOCC2)cc1)c1cccc(F)c1` (stereo not shown) [Compound 5-118, 2-(3-fluorophenyl)-N-hydroxy-2-(4-morpholinophenyl)acetamide] returned an IC50 of under 1000 nM.

In turn, `Cc1cc(C)cc(COc2cccc(C(C(=O)NO)c3ccccc3)c2)c1` (stereo not shown) [Compound 3-35, 2-(3-(3,5-dimethylbenzyloxy)phenyl)-N-hydroxy-2-phenylacetamide] yielded an IC50 of under 1000 nM.

On to `O=C(NO)C(c1ccccc1)c1ccc(NCc2ccccc2)cc1` (stereo not shown) [Compound 2-78, 2-(4-(benzylamino)phenyl)-N-hydroxy-2-phenylacetamide], for which the half-inhibitory concentration (IC50) is under 1000 nM.

In the case of `O=C(NO)C(c1ccccc1)C1CCCCC1` (stereo not shown) [Compound 1-10, 2-cyclohexyl-N-hydroxy-2-phenylacetamide], the IC50 was under 1000 nM.

`CC(COc1cccc(C(C(=O)NO)c2ccccc2)c1)CN(C)C` (stereo not shown) [Compound 3-17, 2-(3-(3-(dimethylamino)-2-methylpropoxy)phenyl)-N-hydroxy-2-phenylacetamide] showed an IC50 of under 1000 nM.

As to `O=C(CC(c1ccccc1)c1ccccc1)NO` [Compound 1-6, N-hydroxy-3,3-diphenylpropanamide], the IC50 is under 1000 nM.

`COc1cccc(COc2ccc(C(C(=O)NO)c3ccccc3)cc2)c1` (stereo not shown) [Compound 2-14, N-hydroxy-2-(4-(3-methoxybenzyloxy)phenyl)-2-phenylacetamide] came in with an IC50 of under 1000 nM.

In the case of `O=C(NO)C(c1cccs1)c1cccs1` [Compound 1-23, N-hydroxy-2,2-di(thiophen-2-yl)acetamide], the 50% inhibitory concentration (IC50) is 1000 to 15000 nM.

The molecule `COc1ccc(-c2cccc(C(C(=O)NO)c3ccccc3)c2)cc1OC` (stereo not shown) [Compound 2-106, 2-(3′,4′-dimethoxybiphenyl-3-yl)-N-hydroxy-2-phenylacetamide] showed an IC50 of under 1000 nM.

Consider `O=C(NO)C(c1ccccc1)c1cccc(NCc2ccccc2)c1` (stereo not shown) [Compound 2-79, 2-(3-(benzylamino)phenyl)-N-hydroxy-2-phenylacetamide], for which the IC50 lay within 1000 to 15000 nM.

Consider `CC(C(=O)NO)(c1ccccc1)c1ccccc1` [Compound 1-14, N-hydroxy-2,2-diphenylpropanamide], for which the IC50 is under 1000 nM.

Regarding “2-(4-(benzo[d][1,3]dioxol-5-ylmethylbenzo[d][1,3]dioxol-5-ylmethoxy)phenyl)-N-hydroxy-2-phenylacetamide [Compound 3-11]”, the IC50 was under 1000 nM.

`O=C(NO)C(c1ccccc1)c1ccc(-n2ccnc2)cc1` (stereo not shown) [Compound 5-88, 2-(4-(1H-imidazol-1-yl)phenyl)-N-hydroxy-2-phenylacetamide] yielded an IC50 of under 1000 nM.

`Cn1cc(C2CCN(C(C(=O)NO)c3ccccc3)CC2)c2ccccc21` (stereo not shown) [Compound 6-45, N-hydroxy-2-(4-(1-methyl-1H-indol-3-yl)piperidin-1-yl)-2-phenylacetamide] displayed an IC50 of under 1000 nM.

`O=C(NO)C(Oc1ccccc1)c1ccccc1` (stereo not shown) [Compound 1-2, N-hydroxy-2-phenoxy-2-phenylacetamide] came in with an IC50 of under 1000 nM.

`O=C(Nc1cccc(C(C(=O)NO)c2ccccc2)c1)c1cccc(Cl)c1` (stereo not shown) [Compound 2-73, 3-chloro-N-(3-(2-(hydroxyamino)-2-oxo-1-phenylethyl)phenyl)benzamide] returned an IC50 of 1000 to 15000 nM.

Consider `O=C(NO)C(Oc1ccc(F)cc1Cl)c1ccccc1` (stereo not shown) [Compound 7-33, 2-(2-chloro-4-fluorophenoxy)-N-hydroxy-2-phenylacetamide], for which the concentration for half-maximal inhibition (IC50) is 1000 to 15000 nM.

In the case of `O=C(NO)C(c1ccccc1)c1nnc(-c2ccccc2)s1` (stereo not shown) [Compound 5-19, N-hydroxy-2-phenyl-2-(5-phenyl-1,3,4-thiadiazol-2-yl)acetamide], the IC50 was in the range of 1000 to 15000 nM.

In turn, `Cc1ccc(OC(C(=O)NO)c2ccccc2)c(Cl)c1` (stereo not shown) [Compound 7-20, 2-(2-chloro-4-methylphenoxy)-N-hydroxy-2-phenylacetamide] registered an IC50 of 1000 to 15000 nM.

`CCCc1ccc(C(C(=O)NO)c2ccccc2)cc1` (stereo not shown) [Compound 5-102, N-hydroxy-2-phenyl-2-(4-propylphenyl)acetamide] displayed an IC50 of under 1000 nM.

Regarding `O=C(NO)C(c1ccccc1)c1ccc(OCC(=O)N2CCOCC2)cc1` (stereo not shown) [Compound 2-11, N-hydroxy-2-(4-(2-morpholino-2-oxoethoxy)phenyl)-2-phenylacetamide], the IC50 was under 1000 nM.

`CC(C)(C)c1ccc(COc2ccc(C(C(=O)NO)c3ccccc3)cc2)cc1` (stereo not shown) [Compound 3-70, 2-(4-(4-tert-butylbenzyloxy)phenyl)-N-hydroxy-2-phenylacetamide]: the IC50 is under 1000 nM.

As to `O=C(NO)C(c1ccccc1)N1CCN(c2ccccc2O)CC1` (stereo not shown) [Compound 5-103, N-hydroxy-2-(4-(2-hydroxyphenyl)piperazin-1-yl)-2-phenylacetamide], the half-inhibitory concentration (IC50) lay within 1000 to 15000 nM.

Take `CC(C)CCCOc1ccc(C(C(=O)NO)c2ccccc2)cc1` (stereo not shown) [Compound 3-56, N-hydroxy-2-(4-(4-methylpentyloxy)phenyl)-2-phenylacetamide]: the IC50 was under 1000 nM.

For the molecule `O=C(NO)C(c1ccccc1)c1cccc(OCc2cccc(OC(F)(F)F)c2)c1` (stereo not shown) [Compound 3-87, N-hydroxy-2-phenyl-2-(3-(3-(trifluoromethoxy)benzyloxy)phenyl)acetamide], the IC50 was 1000 to 15000 nM.

In the case of `CN(C)c1ccc(-c2cccc(C(C(=O)NO)c3ccccc3)c2)cc1` (stereo not shown) [Compound 2-105, 2-(4′-(dimethylamino)biphenyl-3-yl)-N-hydroxy-2-phenylacetamide], the IC50 was under 1000 nM.

Molecule `O=C(NO)C(c1ccccc1)c1cccc(-c2ccccc2)c1` (stereo not shown) [Compound 5-29, 2-(biphenyl-3-yl)-N-hydroxy-2-phenylacetamide] had an IC50 of under 1000 nM.

Molecule `O=C(NO)C(c1ccccc1)N1CCC(c2cn(Cc3ccccc3)c3ccccc23)CC1` (stereo not shown) [Compound 5-17, 2-(4-(1-benzyl-1H-indol-3-yl)piperidin-1-yl)-N-hydroxy-2-phenylacetamide] came in with an IC50 of under 1000 nM.

On to `O=C(NO)C(c1ccc(N2CCCC2)cc1)c1ccc2c(c1)CCO2` (stereo not shown) [Compound 5-69, 2-(2,3-dihydrobenzofuran-5-yl)-N-hydroxy-2-(4-(pyrrolidin-1-yl)phenyl)acetamide], for which the IC50 was under 1000 nM.

As for `O=C(NO)C(c1ccccc1)c1ccc(N2CCN(C3CCCC3)CC2)cc1` (stereo not shown) [Compound 5-77, 2-(4-(4-cyclopentylpiperazin-1-yl)phenyl)-N-hydroxy-2-phenylacetamide], the half-inhibitory concentration (IC50) is under 1000 nM.

For `CCN(CC)c1ccc(C(C(=O)NO)c2ccc3c(c2)CCO3)cc1` (stereo not shown) [Compound 5-82, 2-(4-(diethylamino)phenyl)-2-(2,3-dihydrobenzofuran-5-yl)-N-hydroxyacetamide], the IC50 was under 1000 nM.

Molecule `CN(C)c1ccc(C(C(=O)NO)c2ccccc2)c2ccccc12` (stereo not shown) [Compound 5-32, 2-(4-(dimethylamino)naphthalen-1-yl)-N-hydroxy-2-phenylacetamide] had an IC50 of 1000 to 15000 nM.

`Cn1cnc(S(=O)(=O)N2CCN(C(C(=O)NO)c3ccccc3)CC2)c1` (stereo not shown) [Compound 2-38, N-hydroxy-2-(4-(1-methyl-1H-imidazol-4-ylsulfonyl)piperazin-1-yl)-2-phenylacetamide]: the IC50 is under 1000 nM.

`O=C(NO)C(c1ccccc1)c1nnc(-c2ccc(Br)cc2)s1` (stereo not shown) [Compound 1-39, 2-(5-(4-bromophenyl)-1,3,4-thiadiazol-2-yl)-N-hydroxy-2-phenylacetamide] yielded an IC50 of under 1000 nM.

The molecule `O=C(NO)C(c1ccccc1)c1ccc(OCC2CCCCC2)cc1` (stereo not shown) [Compound 3-57, 2-(4-(cyclohexylmethoxy)phenyl)-N-hydroxy-2-phenylacetamide] registered an IC50 of under 1000 nM.

Regarding `Cc1ccsc1C(=O)Nc1cccc(C(C(=O)NO)c2ccccc2)c1` (stereo not shown) [Compound 2-66, N-(3-(2-(hydroxyamino)-2-oxo-1-phenylethyl)phenyl)-3-methylthiophene-2-carboxamide], the IC50 lay within 1000 to 15000 nM.

For `CC(COc1ccc(C(C(=O)NO)c2ccccc2)cc1)CN(C)C` (stereo not shown) [Compound 3-18, 2-(4-(3-(dimethylamino)-2-methylpropoxy)phenyl)-N-hydroxy-2-phenylacetamide], the IC50 is 1000 to 15000 nM.

Consider `CC(C)CC(=O)Nc1ccc(C(C(=O)NO)c2ccccc2)cc1` (stereo not shown) [Compound 2-53, N-(4-(2-(hydroxyamino)-2-oxo-1-phenylethyl)phenyl)-3-methylbutanamide], for which the half-inhibitory concentration (IC50) was under 1000 nM.

As for `COc1ccc(C(=O)Nc2cccc(C(C(=O)NO)c3ccccc3)c2)cc1` (stereo not shown) [Compound 2-69, N-(3-(2-(hydroxyamino)-2-oxo-1-phenylethyl)phenyl)-4-methoxybenzamide], the IC50 is under 1000 nM.

The molecule `O=C(NO)C(c1ccccc1)n1ccc(-c2ccccc2)c1` (stereo not shown) [Compound 5-2, N-hydroxy-2-phenyl-2-(3-phenyl-1H-pyrrol-1-yl)acetamide] returned an IC50 of under 1000 nM.

In turn, `COc1ccc(-c2ccc(C(C(=O)NO)c3ccccc3)cc2)cc1` (stereo not shown) [Compound 5-9, N-hydroxy-2-(4′-methoxybiphenyl-4-yl)-2-phenylacetamide] displayed an IC50 of under 1000 nM.

In turn, `CC(C)C(=O)ONC(=O)C(c1ccccc1)c1ccc(N2CCOCC2)cc1` (stereo not shown) [Compound 5-121, N-(isobutyryloxy)-2-(4-morpholinophenyl)-2-phenylacetamide] displayed an IC50 of 1000 to 15000 nM.

Molecule `O=C(NO)C(c1ccccc1)c1cccc(OCC2CCCCC2)c1` (stereo not shown) [Compound 3-32, 2-(3-(cyclohexylmethoxy)phenyl)-N-hydroxy-2-phenylacetamide] displayed an IC50 of 1000 to 15000 nM.

On to `O=C(NO)C(c1ccccc1)c1ccc(-c2ccc3[nH]ccc3c2)cc1` (stereo not shown) [Compound 5-41, 2-(4-(1H-indol-5-yl)phenyl)-N-hydroxy-2-phenylacetamide], for which the IC50 is under 1000 nM.

What is called IC50 is the concentration that gives 50% inhibition. Read a high IC50 as lower potency.
